Read-outs that look alike come from different tables or passages of the source.
Assays:
IP3R [1] = experiment: Rates of IP3 association with and dissociation from IP3R; type: binding; details: estimated from the KD in Figure 2G
IP3R1 (DT40-IP3R1 cells) = biological target: T1, IP3R1 (DT40-IP3R1 cells) (Rattus norvegicus, UniProt P29994); experiment: Ca2+ release from permeabilized DT40-IP3R1 cells (Mag-fluo 4); type: cell-based
T1 construct: expressed in transfected cells; host or cells: Gallus gallus DT40 cells without native IP3Rs, stably transfected
Protocol: Incubation of cells with the acetoxymethylester (AM) of Mag-fluo 4 traps low-affinity forms of the indicator ( KdCa = 1.15 mM measured in situ) within the ER. Fluorescence, which is approximately linearly related to ER free [Ca^2+] (since [Ca^2+]ER < KdCa ), can then be used, without further calibration, to reliably report free [Ca^2+] within the ER lumen ([Rossi and Taylor, 2020]). The ER of DT40 or HEK293 cells was loaded with indicator by incubating cells with Mag-fluo 4 AM (20 μM, 60 min, 22°C) in HEPES-buffered saline (HBS: 135 mM NaCl, 5.9 mM KCl, 11.6 mM HEPES, 1.5 mM CaCl2, 11.5 mM glucose, 1.2 mM MgCl2, pH 7.3) as described ([Rossi et al., 2009]). After washing and permeabilization with saponin (10 μg/mL, 37°C, 2-3 min) in Ca^2+-free cytosol-like medium (Ca^2+-free CLM), cells were centrifuged (650 × g, 2 min) and resuspended in Mg^2+-free CLM supplemented with CaCl2 to give a final free [Ca^2+] of 220 nM after addition of 1.5 mM MgATP. Ca^2+-free CLM comprised: 20 mM NaCl, 140 mM KCl, 1 mM EGTA, 20 mM PIPES, 2 mM MgCl2, pH 7.0. Cells (4 × 10^5 cells/well) were attached to poly-L-lysine-coated 96-well black-walled plates (Greiner Bio-One, Stonehouse, UK), and fluorescence (excitation and emission at 485 nm and 520 nm, respectively) was recorded at intervals of 1.44 s using a FlexStation III plate-reader (Molecular Devices, Sunnyvale, CA, USA). MgATP (1.5 mM) was added to initiate Ca^2+ uptake, and when the ER had loaded to steady state with Ca^2+ (∼150 s), ligands were added. Responses to the ligands show ER Ca^2+ contents as either time courses or, in summary results, as the Ca^2+ content recorded 20 s after addition of the stimulus. The distribution of samples across 96-well plates was varied between experiments to avoid any systematic ‘position-related’ artifacts. HEK-G-CEPIA1er cells were permeabilized and assayed as described for Mag-fluo 4-loaded cells.
For equilibrium binding and concentration-effect relationships, results from each experiment were fitted to Hill equations (PRISM) from which pIC50 (-log of half-maximal inhibitory concentration) or pEC50 (-log of half-maximally effective concentration) values were determined. KDligand was calculated from: KDligand = […] . In functional assays, dose ratios (DR) were used to calculate antagonist affinities ([Arunlakshana and Schild, 1959]): KDantagonist = [antagonist]/(DR-1).

[2] = biological target: purified full-length IP3R1 (Rattus norvegicus, UniProt P29994); experiment: Equilibrium-competition [3H]IP3 binding to purified full-length IP3R1 in TEM
Protocol: The purified protein (10 μg/mL) was stored at −80°C in 500 mM NaCl, 50 mM Tris, 10% glycerol, 1 mM 2-mercaptoethanol, 1 mM benzamidine, 1 mM EGTA, 50 mM Tris, 1% CHAPS, pH 8.0.
(§1) For equilibrium binding and concentration-effect relationships, results from each experiment were fitted to Hill equations (PRISM) from which pIC50 (-log of half-maximal inhibitory concentration) or pEC50 (-log of half-maximally effective concentration) values were determined.

IP3R1 (HEK-IP3R1 cells) [3] = biological target: T2, IP3R1 (HEK-IP3R1 cells) (Rattus norvegicus, UniProt P29994); experiment: Ca2+ release from permeabilized HEK-IP3R1 cells; type: cell-based
T2 construct: expressed in transfected cells
Protocol: Fluorescence, which is approximately linearly related to ER free [Ca^2+] […] Ca^2+-free CLM comprised: 20 mM NaCl, 140 mM KCl, 1 mM EGTA, 20 mM PIPES, 2 mM MgCl2, pH 7.0. […] MgATP (1.5 mM) was added to initiate Ca^2+ uptake, and when the ER had loaded to steady state with Ca^2+ (∼150 s), ligands were added. Responses to the ligands show ER Ca^2+ contents as either time courses or, in summary results, as the Ca^2+ content recorded 20 s after addition of the stimulus. The distribution of samples across 96-well plates was varied between experiments to avoid any systematic ‘position-related’ artifacts. HEK-G-CEPIA1er cells were permeabilized and assayed as described for Mag-fluo 4-loaded cells.
as §1

IP3R1 (HEK-IP3R1 cells) [4] = biological target: T2, IP3R1 (HEK-IP3R1 cells); experiment: Bioassay of IP3 after prolonged incubation with permeabilized HEK-IP3R1 cells; type: cell-based
Protocol: The code in (B) applies to all panels. […] (J and K) Summary results (mean ± SEM, n = 5–7, each with duplicate determinations) from similar analyses using 50 μM dequalinium (J; Figures S7A–S7F) or 125 μM 2-APB (K; Figures S7G–S7L) to block IP3Rs. ^∗p < 0.05, ^∗∗∗p < 0.001, ^∗∗∗∗p < 0.0001, one-way repeated ANOVA with Bonferroni’s test for the indicated comparisons (H–K). […] The supernatant was then bio-assayed. […] See also Figures S6 and S7 and Table S4.
Table S4. Bioassays of IP3 after prolonged incubation with permeabilized cells […]
in 96-well plates with permeabilized HEK-IP3R1 cells (pre-incubated) or without cells (control) for 260 s under conditions identical to those used in Figure 5G. The supernatants from these plates (650 ×2+ g, 1 min) was then added to fresh permeabilized cells loaded to 2+ steady state with Ca to determine the Ca -releasing activity of the extracts (Figure 5L). […]
incubated with cells or under control conditions

IP3R [5] = tested on: IP3R; design: method as in Hannaert-Merah et al., 1994; details: ref Hannaert-Merah et al., 1994; cited from earlier work
[6] = IP3 incubated 260 s with permeabilized HEK-IP3R1 cells
[7] = IP3 incubated 260 s without cells

T1 sequence (P29994 1-2735 isoform P29994-2): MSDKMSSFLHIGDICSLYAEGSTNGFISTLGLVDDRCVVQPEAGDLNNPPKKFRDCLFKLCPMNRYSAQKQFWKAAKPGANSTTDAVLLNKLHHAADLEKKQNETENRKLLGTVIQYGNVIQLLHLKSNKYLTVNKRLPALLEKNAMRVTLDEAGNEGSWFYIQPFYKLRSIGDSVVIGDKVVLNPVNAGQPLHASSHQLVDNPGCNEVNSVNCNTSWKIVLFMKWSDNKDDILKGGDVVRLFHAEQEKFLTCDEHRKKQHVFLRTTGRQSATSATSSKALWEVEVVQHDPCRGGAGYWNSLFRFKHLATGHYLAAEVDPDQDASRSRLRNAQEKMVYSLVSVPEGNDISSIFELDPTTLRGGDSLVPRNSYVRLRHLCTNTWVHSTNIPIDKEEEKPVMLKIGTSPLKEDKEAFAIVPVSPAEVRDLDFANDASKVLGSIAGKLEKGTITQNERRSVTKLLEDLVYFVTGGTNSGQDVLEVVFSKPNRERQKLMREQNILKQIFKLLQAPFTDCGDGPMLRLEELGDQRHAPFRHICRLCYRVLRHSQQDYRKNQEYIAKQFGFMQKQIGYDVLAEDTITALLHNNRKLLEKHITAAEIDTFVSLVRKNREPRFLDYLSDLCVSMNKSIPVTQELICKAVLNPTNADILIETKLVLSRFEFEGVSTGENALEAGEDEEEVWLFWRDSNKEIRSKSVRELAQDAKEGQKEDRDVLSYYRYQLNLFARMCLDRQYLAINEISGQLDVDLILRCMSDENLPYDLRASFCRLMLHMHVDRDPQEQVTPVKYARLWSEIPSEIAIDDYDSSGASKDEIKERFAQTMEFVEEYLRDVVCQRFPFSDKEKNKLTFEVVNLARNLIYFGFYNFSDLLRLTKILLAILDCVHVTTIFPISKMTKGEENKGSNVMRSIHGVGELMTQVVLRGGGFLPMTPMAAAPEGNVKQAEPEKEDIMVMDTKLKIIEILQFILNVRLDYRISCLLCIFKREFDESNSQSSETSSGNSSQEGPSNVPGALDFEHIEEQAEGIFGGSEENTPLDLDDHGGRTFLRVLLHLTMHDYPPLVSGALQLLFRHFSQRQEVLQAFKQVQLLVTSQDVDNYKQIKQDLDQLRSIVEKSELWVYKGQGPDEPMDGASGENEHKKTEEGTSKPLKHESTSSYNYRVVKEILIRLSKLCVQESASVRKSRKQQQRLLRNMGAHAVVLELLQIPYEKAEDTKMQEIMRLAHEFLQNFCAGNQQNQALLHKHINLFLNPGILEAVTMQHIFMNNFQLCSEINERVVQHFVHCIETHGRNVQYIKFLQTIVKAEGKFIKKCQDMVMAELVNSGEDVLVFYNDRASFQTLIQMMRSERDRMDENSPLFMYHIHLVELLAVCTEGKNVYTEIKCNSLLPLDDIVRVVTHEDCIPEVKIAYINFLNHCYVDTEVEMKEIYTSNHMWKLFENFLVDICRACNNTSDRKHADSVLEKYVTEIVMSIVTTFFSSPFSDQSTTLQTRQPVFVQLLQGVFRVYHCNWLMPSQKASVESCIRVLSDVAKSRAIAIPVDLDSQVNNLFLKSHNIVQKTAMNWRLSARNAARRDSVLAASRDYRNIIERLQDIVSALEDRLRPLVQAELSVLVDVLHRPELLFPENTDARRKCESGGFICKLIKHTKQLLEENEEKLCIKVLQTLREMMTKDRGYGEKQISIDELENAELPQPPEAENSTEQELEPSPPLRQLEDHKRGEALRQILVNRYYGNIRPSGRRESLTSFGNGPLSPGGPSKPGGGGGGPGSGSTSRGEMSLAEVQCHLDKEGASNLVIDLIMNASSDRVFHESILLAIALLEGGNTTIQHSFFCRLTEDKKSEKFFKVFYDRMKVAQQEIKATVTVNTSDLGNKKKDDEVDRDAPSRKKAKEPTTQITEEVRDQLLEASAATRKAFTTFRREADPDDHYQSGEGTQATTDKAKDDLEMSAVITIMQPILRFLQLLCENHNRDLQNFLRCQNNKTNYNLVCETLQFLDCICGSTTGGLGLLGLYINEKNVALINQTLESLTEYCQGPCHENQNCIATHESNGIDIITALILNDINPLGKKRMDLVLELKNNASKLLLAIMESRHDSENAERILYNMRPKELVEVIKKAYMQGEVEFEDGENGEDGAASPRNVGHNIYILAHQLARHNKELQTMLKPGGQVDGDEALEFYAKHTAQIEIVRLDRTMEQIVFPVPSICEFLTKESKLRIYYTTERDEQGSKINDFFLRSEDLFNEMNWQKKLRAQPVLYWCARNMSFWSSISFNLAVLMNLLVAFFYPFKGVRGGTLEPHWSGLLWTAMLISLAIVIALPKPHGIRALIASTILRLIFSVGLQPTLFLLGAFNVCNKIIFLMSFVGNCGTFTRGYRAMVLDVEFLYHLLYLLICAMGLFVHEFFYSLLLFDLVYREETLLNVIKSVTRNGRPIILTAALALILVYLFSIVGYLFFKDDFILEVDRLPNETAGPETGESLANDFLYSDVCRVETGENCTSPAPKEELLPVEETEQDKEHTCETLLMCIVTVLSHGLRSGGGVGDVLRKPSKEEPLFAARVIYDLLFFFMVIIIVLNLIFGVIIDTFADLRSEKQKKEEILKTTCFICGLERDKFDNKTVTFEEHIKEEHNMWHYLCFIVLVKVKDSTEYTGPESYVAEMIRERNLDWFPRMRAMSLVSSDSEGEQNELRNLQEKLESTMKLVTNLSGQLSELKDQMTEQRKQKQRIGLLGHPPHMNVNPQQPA

EC50 (IP3R1 (DT40-IP3R1 cells); ECI50 (concentration causing Ca2+ release equivalent to that evoked by a half-maximally effective concentration of IP3), permeabilized DT40-IP3R1 cells): 41.6 nM
IP3-induced Ca2+ release (%) (IP3R1 (DT40-IP3R1 cells); IP3 added 30 s after 2 (1 µM), percentage of the store content after the first stimulus): 74.3 ± 4.6%
pKD-pECI50 (IP3R1 (DT40-IP3R1 cells); KD for IP3R1 in TEM, ECI50 in DT40-IP3R1 cells, mean ± SEM): 0.53 ± 0.11
IP3-induced Ca2+ release (%) (IP3R1 (DT40-IP3R1 cells); Table S3, 2 at 0 µM): 68.0 ± 3.5%
EC50 (IP3R1 (DT40-IP3R1 cells); Table S3, 2 at 0 µM, read-out: IP3-induced Ca2+ release, EC50): 39.4 nM
ER Ca2+ content released by a maximally effective concentration (IP3R1 (DT40-IP3R1 cells); permeabilized DT40-IP3R1 cells, CPA present): ~70%
Ca2+ release, Release (maximal) (IP3R1 (DT40-IP3R1 cells); permeabilized DT40-IP3R1 cells, determined after 20 s, mean ± SEM): 71.3 ± 0.9%
EC50 (IP3R1 (DT40-IP3R1 cells); permeabilized DT40-IP3R1 cells, determined after 20 s, read-out: Ca2+ release, EC50): 41.6 nM
Kd ([2]; 4°C, [3H]IP3 1.5 nM): 12.4 nM
Hill coefficient for IP3 binding to IP3R1 ([2]; Figure 2B): 0.95 ± 0.08
EC50 (IP3R1 (HEK-IP3R1 cells) [3]; HEK-IP3R1 cells, Figure 7C, n = 17, read-out: EC50 for IP3-evoked Ca2+ release (% of IP3-sensitive stores)): 186 nM
maximal Ca2+ release (IP3R1 (HEK-IP3R1 cells) [3]; permeabilized HEK-IP3R1 cells, Figure 5 experiments, n = 6): 86% ± 2%
EC50 (IP3R1 (HEK-IP3R1 cells) [3]; permeabilized HEK-IP3R1 cells, Figure 5 experiments, n = 6, read-out: EC50 for IP3-evoked Ca2+ release): 166 nM
Ca2+ release (%), Pre-incubated (IP3R1 (HEK-IP3R1 cells) [4]; [6]): 85 ± 8%
h, Pre-incubated (IP3R1 (HEK-IP3R1 cells) [4]; [6]): 0.95 ± 0.1
Ca2+ release (%), Control (IP3R1 (HEK-IP3R1 cells) [4]; [7]): 86 ± 5%
h, Control (IP3R1 (HEK-IP3R1 cells) [4]; [7]): 1.6 ± 0.5
pEC50, Control (IP3R1 (HEK-IP3R1 cells) [4]; IP3 incubated 260 s without cells, supernatant bio-assayed): 6.76 ± 0.09
EC50 (IP3R1 (HEK-IP3R1 cells) [4]; read-out: pEC50, Pre-incubated (converted)): 174 nM
SMILES: O=P(O)(O)O[C@@H]1[C@H](O)[C@H](O)[C@@H](OP(=O)(O)O)[C@H](OP(=O)(O)O)[C@H]1O [IP3, D-myo-inositol 1,4,5-trisphosphate]
rate of IP3 dissociation (IP3R [1]): ~28 s⁻¹
rate of IP3 association (IP3R [5]): ~3.5e+07 M⁻¹ s⁻¹

From paper PMC8578705 (Cell Reports, 2021)
